Values of other authors in patent publication US8618345B2 (priority 2006, dated 2013).

How the values were obtained:
[1] = in vivo
[2] = ratio to inorganic arsenic (arsenic trioxide)

| Compound | half life of a substance in the body (BHT) [1] [h] | demethylation if accumulated in the body [1] | toxicity compared with that of inorganic arsenic (arsenic trioxide) [2] |
| --- | --- | --- | --- |
| arsenic trioxide [inorganic arsenic, reference compound] | 28 |  |  |
| C[As+](C)(C)CC(=O)[O-] [arsenobetaine] | 3.5 | no demethylation | approximately 1/300 |
